Laboratory results taken from publication PMC5302928, “[^64Cu]XYIMSR-06: A dual-motif CAIX ligand for PET imaging of clear cell renal cell carcinoma” (Oncotarget, 2016).
Several values for one entry are separate records, joined by “and”; a condition that tells them apart may be missing. Equal entries are not always repeated.

Test system: CAIX-expressing SK-RC-52 ccRCC tumor xenografts
Test: Biodistribution of [Al18F]XYIMSR-04 in mice bearing SK-RC-52 xenografts
Type: in vivo
Conditions: 1 h
Experimental: The resulting Mice bearing SK-RC-52 xenografts within the solution was heated at 110 °C for 30 min. 0.6 mg of lower left flank were injected intravenously with 740 [Al19F]XYIMSR-04 was obtained as white crystal, after kBq (20 μCi) of [Al18F]XYIMSR-04 in 200 μL of PBS.
HPLC purification. Yield is 61 %. HPLC condition: At specific 1 hour time point mentioned in the paper, column Phenomenex, Luna 10 x 250 mm, 10 µ. 20/80/ mice (n = 5) were sacrificed by cervical dislocation and TFA MeCN/H O/TFA, flow 4 mL/min. Product was the blood was immediately collected by cardiac puncture. […]
eluded at 35.5 min. MS, calculated for C H AlFN N Heart, lungs, pancreas, spleen, fat, brain, muscle, small […]
aO S [M+Na] : 1426.4759; Found: 1426.4777. intestines, liver, bone, stomach, kidney, urinary bladder, […]
and tumor were collected. Each organ was weighed and Radiosynthesis the tissue radioactivity was measured with an automated gamma counter (1282 Compugamma CS, Pharmacia/
For convenience, Na18F in saline purchased from LKBNuclear, Inc., Mt. Waverly, Vic. Australia). The PETNET (Hackensack, NJ) was directly applied with to percentage of injected dose per gram of tissue (% ID/g) the synthesis with a slightly modified protocol (2). Due to was calculated by comparison with samples of a standard […]
reaction condition. corrected for radioactive decay.
Radiosynthesis of [Al18F]XYIMSR-04. 400μg of Data were expressed as mean ± standard deviation XYIMSR-04 in 200 μL water/Ethanol 1:1 was added to (SD). Prism software (GraphPAD, San Diego, California) 1 mL of Na18F in 0.9% saline containing 4.6-14.0 mCi was used to determine statistical significance. Statistical activity. To this mixture, 20 μL of 2 mM AlCl3/NaOAc significance was calculated using a paired t test. P-values solution and 200 μL of ethanol were added. The reaction < 0.0001 were considered significant. was kept at 105 °C for 20 min, then diluted to 2.0 mL The biodistribution data at 1 h is shown below. with water and loaded onto a preparative HPLC column The tumor uptake is 14.40%ID/g, with tumor-to –blood, for purification. Retention times for the radiolabeled -muscle and –kidney of 22.1, 9.74 and 0.28. compound, [Al18F]XYIMSR-04, and starting material, XYIMSR-04, were optimized to the point of baseline Imaging separation, with [Al18F]XYIMSR-04 eluting first.
[Al18F]XYIMSR-04 was obtained a radiochemical yield Mice harboring subcutaneous SK-RC-52 tumors of 4.3% (n=3) in specific radioactivity of 57-92 Ci/mmol with the lower left flank were injected with 7.4 MBq (200 in 1 hour. HPLC conditions: Phenomenex, Luna 10 x 250 μCi) of [Al18F]XYIMSR-04 in 250 µL of PBS (pH = 7.0) mm, 10μ. 20/80/0.1 MeCN/H2O/TFA, flow 4 mL/min. intravenously (tail vein). Anesthesia was then induced Product eluted at 35.5 min, while starting material eluted with 3% isofluorane and maintained at 2% isoflurane. […]
(also on this page, place not known: www.impactjournals.com/oncotarget/ Oncotarget, Supplementary Materials 2016 ([Al19F]XYIMSR-04). AlCl 3 2O/TFA, 57H79AlFN15N aO20S2 +: Na 18F [Al 18F]XYIMSR-04. XYIMSR-04 Na 18F AlCl 3/NaOAc [Al 18F]XYIMSR-04, [Al 18F]XYIMSR-04 MeCN/H 2O/TFA, [Al 19F]XYIMSR-04 [Al 18F]XYIMSR-04) […]

CC(CCC(=O)N[C@@H](CC(=O)N[C@@H](CC(=O)N[C@@H](CCCCn1cc(CCCC(=O)Nc2nnc(S(N)(=O)=O)s2)nn1)C(=O)NCCOCCOCCNC(=O)CN1CCN2CCN(CC1)CC(=O)[O][Al]([18F])[O]C(=O)C2)C(=O)O)C(=O)O)(c1ccc(O)cc1)c1ccc(O)cc1 [[Al^18F]XYIMSR-04]
Bladder uptake: 20.12 ± 12.51 %ID/g | Blood uptake: 0.65 ± 0.11 %ID/g | Bone uptake: 1.91 ± 1.39 %ID/g | Brain uptake: 0.66 ± 0.04 %ID/g | Fat uptake: 1.54 ± 0.25 %ID/g | Heart uptake: 5.03 ± 0.51 %ID/g | Kidney (kid) uptake: 50.84 ± 2.65 %ID/g | Liver uptake: 5.55 ± 0.91 %ID/g | Lung uptake: 34.07 ± 5.85 %ID/g | Muscle (mm) uptake: 1.74 ± 0.58 %ID/g | Pancreas uptake: 3.47 ± 0.16 %ID/g | Sm. intestine uptake: 9.59 ± 1.04 %ID/g | Spleen uptake: 0.54 ± 0.18 %ID/g | Stomach uptake: 21.62 ± 1.85 %ID/g | Tumor uptake: 14.4 ± 2.2 %ID/g | Tumor/kid (kidney) ratio: 0.28 ± 0.03 | Tumor/mm (muscle) ratio: 9.7 ± 2.9 | Tumor/Blood ratio (listed as [Al18F]XYIMSR-04): 22.1 and 22.1 ± 1.5 | Tumor/kid (kidney) ratio (listed as [Al18F]XYIMSR-04): 0.28 | Tumor/mm (muscle) ratio (listed as [Al18F]XYIMSR-04): 9.74
